From article PMC12036875, “Mitochondria-targeting natural product rhein conjugated with dichloroacetate as the dual inhibitor of glycolysis and oxidative phosphorylation to off energize cancer cells and induce ROS storm” (Theranostics, 2025)
Read-outs that look alike come from different tables or passages of the source.

Tests used:
[1] = tested on: CT26 cells; test: MTT cytotoxicity assay; assay type: cell-based; conditions: Mus musculus, CT26, 72 h, read-out: IC50 CT26
Description: (§1) The cytotoxicity of Rhein-DCA conjugate was performed on various cancer cell lines, including breast cancer (4T1 and MCF-7), cervical cancer (HeLa), and colorectal carcinoma (CT26) via 3-(4,5)-dimethylthiahiazo(-z-y1)-3,5-di-phenytetrazoliumromide (MTT) assay. […] Moreover, the cytotoxicity of these compounds (rhein, DCA, R + D and Rhein-DCA) for normal cells (293T) was lower than that of those tested cancer cells.
(§2) Mouse breast cancer 4T1 cells and Mouse colorectal carcinoma CT26 cells were purchased from Haixing Biosciences Co., Ltd (Jiangsu, P. R. China), and cultured in complete RPMI-1640 medium supplemented with 10% FBS and 1% Penicillin / Streptomycin in a cell incubator (37 °C in 95% air and 5% CO2 atmosphere). Human breast cancer MCF-7 cells, Human cervical carcinoma HeLa cells and Human embryonic kidney 293T cells were obtained from the China Center for Type Culture Collection (CCTCC). MCF-7 and HeLa cells were cultured in DMEM medium containing 10% FBS and 1% Penicillin / Streptomycin and then cultured in a cell incubator (37 °C in 95% air and 5% CO2 atmosphere).
(§3) The cytotoxicity of rhein, DCA, the mixture of rhein and DCA (R + D) and Rhein-DCA conjugate was evaluated on HeLa, MCF-7, CT26, 4T1 and 293T cell lines by MTT assay. Cells were seeded in 96-well plates at a density of 3 × 10^3 cells per well in the corresponding complete culture medium and cultured for 24 h. Then cells were incubated with 200 μL fresh medium containing the respective desired concentrations of rhein, DCA, R + D (with the concentrations being 100, 66.7, 44.4, 29.6, 19.8, 13.2, 8.8, 5.9, 3.9, 2.6, 1.7 and 1.2 μM, respectively) and Rhein-DCA conjugate (with the concentrations being 29.6, 19.8, 13.2, 8.8, 5.9, 3.9, 2.6, 1.7, 1.2, 0.8, 0.5 and 0.3 μM, respectively). After 72 h of incubation, 20 μL of MTT solution (5 mg/mL) was added to each well and the plates were cultured for another 4 h. The medium was carefully removed, and 110 μL of DMSO was added into per well to dissolve the formazan. The absorption densities at 590 nm were recorded with microplate reader. The quoted IC50 values were presented as the mean ± standard deviation.

[2] = tested on: 4T1 cells; test: MTT cytotoxicity assay; assay type: cell-based; conditions: Mus musculus, read-out: IC50 4T1
Description: as §1, §2, §3

[3] = tested on: HeLa cells; test: MTT cytotoxicity assay; assay type: cell-based; conditions: Homo sapiens
Description: as §1, §2, §3

[4] = tested on: MCF-7 cells; test: MTT cytotoxicity assay; assay type: cell-based; conditions: Homo sapiens, read-out: IC50 MCF-7
Description: as §1, §2, §3

[5] = tested on: 4T1 cells; test: Scratch (migration) assay; assay type: cell-based, Mouse; conditions: 6.25 μM, 24 h
Description: Cellular migration is the pivotal characteristic of cancer metastasis. […] Considering the inhibition of the glycolysis pathway resulting in a decrease of lactate, we studied the migration behavior of aggressive 4T1 cells in vitro. The results of scratch assay were shown in Figure S15, after being treated with different drugs for 24 h, the wound borders of 4T1 cells gradually got closer in control, rhein, DCA and R + D groups, and the migration rates reached approximately 40%.
4T1 cells were seeded in 6-well plate and incubated for 24 h. A straight scratch line across the cell monolayer was marked at the bottom of the plate with 200 μL pipette tip. Plate was washed twice with PBS to remove the detached cells. 6.25 μM of indicated drugs were added into each well, then the wound borders of cells were imaged at 0 h, 12 h and 24 h, respectively. The migration rate was calculated as follows: migration rate (%) = (initial scratch area - final scratch area) / initial scratch area × 100%, and the scratch area was processed with the Image J derivatives Fiji software.

[6] = tested on: 4T1 cells; test: Immunogenic cell death detection in vitro (HMGB1, CRT, extracellular ATP); assay type: cell-based, Mouse
From the text: It is known that mitochondrial dysfunction occasioned by ROS triggers immunogenic cell death (ICD), characterized by the release of DAMPs from tumor cells, such as high mobility group box 1 (HMGB1), calreticulin (CRT) and ATP. These DAMPs directly reactivated anti-tumor immune response of TAMs of in vivo [33]. Given the encouraging results of ROS generation, the ICD effect of Rhein-DCA conjugate was consequently explored in vitro. HMGB1 is a type of nuclear protein, which would be released to extracellular during the ICD process. […] This was because rhein, DCA, and the R + D cannot induce adequate production of ROS and sufficient ATP depletion (Figure 5F). We further detected the HMGB1 content in the cell culture media with an ELISA kit. […] This further confirmed that Rhein-DCA effectively promoted the release of HMGB1 from the cell nucleus to the extracellular space (Figure S20). Unlike HMGB1, abundant CRT often exposed on the cell membrane surface of tumor cells. Flow cytometry was employed to analyze CRT protein of 4T1 cells. […] The secreted ATP from 4T1 cells with immunogenicity was further measured to evaluate the ICD effect after being cultured with various drugs for 6, 12 and 24 h. […] There was no apparent distinction between rhein, DCA, R + D groups and the control group when co-cultured for 6 or 12 h. A slight difference was observed until the cultivation time was prolonged to 24 h. […] This reminded us that the Rhein-DCA conjugate may enhance tumor treatment by promoting ICD-mediated immunotherapy.
4T1 cells were seeded in 6-well plates and confocal dishes with an identical density of 10 × 10^4 cells per well for 24 h cultivation. The cells were processed with indicated drugs at a concentration of 6.25 μM for another 24 h. The cells were washed twice with PBS and then fixed with 4%-paraformaldehyde (1 mL) for 15 min at 37 °C, followed by two washes with PBS. (1) The cells on confocal dishes were next permeabilized with triton-X-100 for 15 min at room temperature, blocked with BSA solution (5% in PBS) for 1 h at room temperature, and further incubated with rabbit anti-mouse HMGB-1 (1:500) overnight at 4 °C. Afterwards, the cells were incubated with secondary antibody (1:500) for 1 h at room temperature, washed with PBS, and then stained with Hoechst 33342 (10 μg/mL) for 10 min in the dark at room temperature. Finally, confocal microscope was employed to observe the HMGB1 protein within the cells. The secretion of HMGB1 in culture medium was detected by ELISA assay. The culture media was collected and centrifuged at 1000 G for 20 min, the supernatant was collected and detected with ELISA kit according to the manufacturer's protocol. (2) The cells in the 6-well plates were collected in 1.5 mL tubes, stained with rabbit anti-mouse calreticulin (1:1000) for 30 min at 4 °C, washed twice with PBS, and then analyzed with flow cytometry. (3) For the extracellular ATP content, the cells were cultured for 6, 12 and 24 h at 37 °C, and the medium were collected and centrifuged at 1000 G for 20 min, the supernatant was collected and detection with ELISA kit according to the manufacturer's protocol.

[7] = 72 h treatment, MTT, mean ± S.D., n = 3
[8] = 4T1, 72 h treatment, MTT, mean ± S.D., n = 3
[9] = 72 h treatment, MTT, mean ± S.D., n = 3, read-out: IC50 HeLa
[10] = MCF7, 72 h treatment, MTT, mean ± S.D., n = 3

SMILES | IC50 [1] | IC50 ([2]; 4T1, 72 h) | IC50 ([3]; 72 h, read-out: IC50 HeLa) | IC50 ([4]; MCF7, 72 h) | migration rate [5] | HMGB1 in cell nucleus (CLSM red fluorescence) ([6]; 6.25 μM, 24 h) | IC50 [1, 7] | IC50 [2, 8] | IC50 [3, 9] | IC50 [4, 10] | surface-exposed CRT ([6]; 6.25 μM, 24 h, flow cytometry) | HMGB1 secreted into the culture medium (ELISA) ([6]; 6.25 μM, 24 h, vs control, rhein, DCA, R + D) | extracellular ATP in supernatants ([6]; 6 h to 24 h, vs other groups)
O=C(O)C(Cl)Cl [DCA, Dichloroacetate] | > 100 µM | > 100 µM | > 100 µM | > 100 µM | approximately 40% | almost completely located in nuclei | – | – | – | – | – | – | –
O=C(O)c1cc(O)c2c(c1)C(=O)c1cccc(O)c1C2=O [Rhein, 4,5-dihydroxyanthraquinone-2-carboxylic acid] | – | – | – | – | approximately 40% | almost completely located in nuclei | 42.1 ± 3.3 µM | 41.2 ± 1 µM | 68.3 ± 5.1 µM | 79.9 ± 2.3 µM | – | – | –
O=C(OCCOC(=O)C(Cl)Cl)c1cc(O)c2c(c1)C(=O)c1cccc(O)c1C2=O [Rhein-DCA] | – | – | – | – | 8% | disappeared | 2.7 ± 0.1 µM | 1.7 µM | 6.7 µM | 3.9 µM | 44% | increased significantly | higher
